Measurements from PMC6804253, “Predicting and Experimentally Validating Hot-Spot Residues at Protein–Protein Interfaces” (ACS Chemical Biology, 2019).
Like-named read-outs stand apart in the source and are kept apart here.

Assays:
[1] = system: PPIs of the SKEMPI data set (by PDBID); conditions: ref SKEMPI, cited from earlier work; for sk_ddG_kJ (SKEMPI experimental ΔΔG) / sk_ddG_kJ (SKEMPI experimental ΔΔG, mutation to alanine) / sk_ddG_kJ: single mutation to alanine; for sk_ddG_kJ (SKEMPI experimental ΔΔG of binding, mutation to alanine): single mutation to alanine in the complex of the given PDBID; for sk_ddG_kJ (SKEMPI experimental ΔΔG, mutation to alanine) / sk_ddG_kJ: complex by PDBID; for sk_ddG_kJ (SKEMPI experimental ΔΔG, mutation to alanine): r_group DERKH; for sk_ddG_kJ: SKEMPI experimental ΔΔG of binding
[2] = system: PPIs of the SKEMPI data set (by PDBID); test: SKEMPI experimental ΔΔG, single mutations to alanine; type: binding; conditions: for sk_class: class of the SKEMPI experimental ΔΔG
[3] = complex given by PDBID, mutation by mut_pdb
[4] = Positive / Neutral / Negative by ΔΔG threshold 4.184 kJ/mol, ref SKEMPI
[5] = class by the 4.184 kJ/mol threshold, r_group DERKH

## 1A22 SA51A
[1]; [3]
  sk_ddG_kJ (SKEMPI experimental ΔΔG): 1.26 kJ
[2]
  sk_class: Neutral (neutral (little effect) 4.184 kJ/mol < ΔΔG > −4.184 kJ/mol)

## 1A22 SA55A
[1]; [3]
  sk_ddG_kJ (SKEMPI experimental ΔΔG): 0.46 kJ
[2]
  sk_class: Neutral (neutral (little effect) 4.184 kJ/mol < ΔΔG > −4.184 kJ/mol)

## 1A22 SA57A
[1]; [3]
  sk_ddG_kJ (SKEMPI experimental ΔΔG): 0.84 kJ
[2]
  sk_class: Neutral (neutral (little effect) 4.184 kJ/mol < ΔΔG > −4.184 kJ/mol)

## 1A22 SA62A
[1]; [3]
  sk_ddG_kJ (SKEMPI experimental ΔΔG): 0.42 kJ
[2]
  sk_class: Neutral (neutral (little effect) 4.184 kJ/mol < ΔΔG > −4.184 kJ/mol)

## 1A22 SA71A
[1]; [3]
  sk_ddG_kJ (SKEMPI experimental ΔΔG): 1.72 kJ
[2]
  sk_class: Neutral (neutral (little effect) 4.184 kJ/mol < ΔΔG > −4.184 kJ/mol)

## 1A22 SA184A
[1]; [3]
  sk_ddG_kJ (SKEMPI experimental ΔΔG): -0.21 kJ
[2]
  sk_class: Neutral (neutral (little effect) 4.184 kJ/mol < ΔΔG > −4.184 kJ/mol)

## 1A22 SA188A
[1]; [3]
  sk_ddG_kJ (SKEMPI experimental ΔΔG): -0.84 kJ
[2]
  sk_class: Neutral (neutral (little effect) 4.184 kJ/mol < ΔΔG > −4.184 kJ/mol)

## 1A22 TA175A
[1]; [3]
  sk_ddG_kJ (SKEMPI experimental ΔΔG): 8.37 kJ
[2]
  sk_class: Positive (positive (a hot residue) ΔΔG ≥ 4.184 kJ/mol)

## 1A22 VA180A
[1]
  sk_ddG_kJ (SKEMPI experimental ΔΔG of binding, mutation to alanine): 0.00 kJ
[2]; [4]
  sk_class (class of the SKEMPI experimental ΔΔG): Neutral (neutral (little effect) 4.184 kJ/mol < ΔΔG > −4.184 kJ/mol)

## 1A22 VA185A
[1]
  sk_ddG_kJ (SKEMPI experimental ΔΔG of binding, mutation to alanine): 3.64 kJ
[2]; [4]
  sk_class (class of the SKEMPI experimental ΔΔG): Neutral (neutral (little effect) 4.184 kJ/mol < ΔΔG > −4.184 kJ/mol)

## 1A22 YA42A
[1]
  sk_ddG_kJ (SKEMPI experimental ΔΔG of binding, mutation to alanine): 0.84 kJ
[2]; [4]
  sk_class (class of the SKEMPI experimental ΔΔG): Neutral (neutral (little effect) 4.184 kJ/mol < ΔΔG > −4.184 kJ/mol)

## 1A22 YA164A
[1]
  sk_ddG_kJ (SKEMPI experimental ΔΔG of binding, mutation to alanine): 1.26 kJ
[2]; [4]
  sk_class (class of the SKEMPI experimental ΔΔG): Neutral (neutral (little effect) 4.184 kJ/mol < ΔΔG > −4.184 kJ/mol)

## 1GC1 DC10A
[1]; sheet sortedByGroup
  sk_ddG_kJ (SKEMPI experimental ΔΔG, mutation to alanine): 0.00 kJ
[2]; [5]
  sk_class (class of the SKEMPI experimental ΔΔG): Neutral (neutral (little effect) 4.184 kJ/mol < ΔΔG > −4.184 kJ/mol)

## 1GC1 DC53A
[1]; sheet sortedByGroup
  sk_ddG_kJ (SKEMPI experimental ΔΔG, mutation to alanine): 1.26 kJ
[2]; [5]
  sk_class (class of the SKEMPI experimental ΔΔG): Neutral (neutral (little effect) 4.184 kJ/mol < ΔΔG > −4.184 kJ/mol)

## 1GC1 EC92A
[1]; sheet sortedByGroup
  sk_ddG_kJ (SKEMPI experimental ΔΔG, mutation to alanine): 0.08 kJ
[2]; [5]
  sk_class (class of the SKEMPI experimental ΔΔG): Neutral (neutral (little effect) 4.184 kJ/mol < ΔΔG > −4.184 kJ/mol)

## 1GC1 KC1A
[1]; sheet sortedByGroup
  sk_ddG_kJ (SKEMPI experimental ΔΔG, mutation to alanine): 0.25 kJ
[2]; [5]
  sk_class (class of the SKEMPI experimental ΔΔG): Neutral (neutral (little effect) 4.184 kJ/mol < ΔΔG > −4.184 kJ/mol)

## 1GC1 KC8A
[1]; sheet sortedByGroup
  sk_ddG_kJ (SKEMPI experimental ΔΔG, mutation to alanine): 0.46 kJ
[2]; [5]
  sk_class (class of the SKEMPI experimental ΔΔG): Neutral (neutral (little effect) 4.184 kJ/mol < ΔΔG > −4.184 kJ/mol)

## 1GC1 KC35A
[1]; sheet sortedByGroup
  sk_ddG_kJ (SKEMPI experimental ΔΔG, mutation to alanine): 1.34 kJ
[2]; [5]
  sk_class (class of the SKEMPI experimental ΔΔG): Neutral (neutral (little effect) 4.184 kJ/mol < ΔΔG > −4.184 kJ/mol)

## 1GC1 RC59A
[1]; sheet sortedByGroup
  sk_ddG_kJ (SKEMPI experimental ΔΔG, mutation to alanine): 4.94 kJ
[2]; [5]
  sk_class (class of the SKEMPI experimental ΔΔG): Positive (positive (a hot residue) ΔΔG ≥ 4.184 kJ/mol)

## 1GC1 VC86A
[1]; PPI given by PDBID, sheet sortedByGroup, r_group FAMILYVW
  sk_ddG_kJ (SKEMPI experimental ΔΔG): -0.29 kJ
[2]; class by ΔΔG threshold 4.184 kJ/mol, ref SKEMPI
  sk_class (class of SKEMPI experimental ΔΔG): Neutral (neutral (little effect) 4.184 kJ/mol < ΔΔG > −4.184 kJ/mol)

B1: 1DAN RU135A (protein, UniProt P13726 33-251, looked up, variant R135A)
extracellular domain: SGTTNTVAAYNLTWKSTNFKTILEWEPKPVNQVYTVQISTKSGDWKSKCFYTTDTECDLTDEIVKDVKQTYLARVFSYPAGNVESTGSAGEPLYENSPEFTPYLETNLGQPTIQSFEQVGTKVNVTVEDERTLVARNNTFLSLRDVFGKDLIYTLYYWKSSSSGKKTAKTNTNEFLIDVDKGENYCFSVQAVIPSRTVNRKSTDSPVECMGQEKGEFRE
modifications: extracellular domain
[1]
  sk_ddG_kJ: 2.18 kJ
[2]; ref SKEMPI
  sk_class: Neutral (neutral (little effect) 4.184 kJ/mol < ΔΔG > −4.184 kJ/mol)

B2: 1DAN RU144A (protein, UniProt P13726 33-251, looked up, variant R144A)
extracellular domain: SGTTNTVAAYNLTWKSTNFKTILEWEPKPVNQVYTVQISTKSGDWKSKCFYTTDTECDLTDEIVKDVKQTYLARVFSYPAGNVESTGSAGEPLYENSPEFTPYLETNLGQPTIQSFEQVGTKVNVTVEDERTLVRRNNTFLSLADVFGKDLIYTLYYWKSSSSGKKTAKTNTNEFLIDVDKGENYCFSVQAVIPSRTVNRKSTDSPVECMGQEKGEFRE
modifications: extracellular domain
[1]
  sk_ddG_kJ: 0.00 kJ
[2]; ref SKEMPI
  sk_class: Neutral (neutral (little effect) 4.184 kJ/mol < ΔΔG > −4.184 kJ/mol)

B3: 1DAN EU208A (protein, UniProt P13726 33-251, looked up, variant E208A)
extracellular domain: SGTTNTVAAYNLTWKSTNFKTILEWEPKPVNQVYTVQISTKSGDWKSKCFYTTDTECDLTDEIVKDVKQTYLARVFSYPAGNVESTGSAGEPLYENSPEFTPYLETNLGQPTIQSFEQVGTKVNVTVEDERTLVRRNNTFLSLRDVFGKDLIYTLYYWKSSSSGKKTAKTNTNEFLIDVDKGENYCFSVQAVIPSRTVNRKSTDSPVACMGQEKGEFRE
modifications: extracellular domain
[1]
  sk_ddG_kJ: 0.00 kJ
[2]; ref SKEMPI
  sk_class: Neutral (neutral (little effect) 4.184 kJ/mol < ΔΔG > −4.184 kJ/mol)

B4: 1DAN KU169A (protein, UniProt P13726 33-251, looked up, variant K169A)
extracellular domain: SGTTNTVAAYNLTWKSTNFKTILEWEPKPVNQVYTVQISTKSGDWKSKCFYTTDTECDLTDEIVKDVKQTYLARVFSYPAGNVESTGSAGEPLYENSPEFTPYLETNLGQPTIQSFEQVGTKVNVTVEDERTLVRRNNTFLSLRDVFGKDLIYTLYYWKSSSSGKKTAATNTNEFLIDVDKGENYCFSVQAVIPSRTVNRKSTDSPVECMGQEKGEFRE
modifications: extracellular domain
[1]
  sk_ddG_kJ: 0.50 kJ
[2]; ref SKEMPI
  sk_class: Neutral (neutral (little effect) 4.184 kJ/mol < ΔΔG > −4.184 kJ/mol)

B5: 1DAN RU136A (protein, UniProt P13726 33-251, looked up, variant R136A)
extracellular domain: SGTTNTVAAYNLTWKSTNFKTILEWEPKPVNQVYTVQISTKSGDWKSKCFYTTDTECDLTDEIVKDVKQTYLARVFSYPAGNVESTGSAGEPLYENSPEFTPYLETNLGQPTIQSFEQVGTKVNVTVEDERTLVRANNTFLSLRDVFGKDLIYTLYYWKSSSSGKKTAKTNTNEFLIDVDKGENYCFSVQAVIPSRTVNRKSTDSPVECMGQEKGEFRE
modifications: extracellular domain
[1]
  sk_ddG_kJ: -0.25 kJ
[2]; ref SKEMPI
  sk_class: Neutral (neutral (little effect) 4.184 kJ/mol < ΔΔG > −4.184 kJ/mol)

B6: 1DAN DU145A (protein, UniProt P13726 33-251, looked up, variant D145A)
extracellular domain: SGTTNTVAAYNLTWKSTNFKTILEWEPKPVNQVYTVQISTKSGDWKSKCFYTTDTECDLTDEIVKDVKQTYLARVFSYPAGNVESTGSAGEPLYENSPEFTPYLETNLGQPTIQSFEQVGTKVNVTVEDERTLVRRNNTFLSLRAVFGKDLIYTLYYWKSSSSGKKTAKTNTNEFLIDVDKGENYCFSVQAVIPSRTVNRKSTDSPVECMGQEKGEFRE
modifications: extracellular domain
[1]
  sk_ddG_kJ: -0.04 kJ
[2]; ref SKEMPI
  sk_class: Neutral (neutral (little effect) 4.184 kJ/mol < ΔΔG > −4.184 kJ/mol)

B7: 1DAN RU196A (protein, UniProt P13726 33-251, looked up, variant R196A)
extracellular domain: SGTTNTVAAYNLTWKSTNFKTILEWEPKPVNQVYTVQISTKSGDWKSKCFYTTDTECDLTDEIVKDVKQTYLARVFSYPAGNVESTGSAGEPLYENSPEFTPYLETNLGQPTIQSFEQVGTKVNVTVEDERTLVRRNNTFLSLRDVFGKDLIYTLYYWKSSSSGKKTAKTNTNEFLIDVDKGENYCFSVQAVIPSATVNRKSTDSPVECMGQEKGEFRE
modifications: extracellular domain
[1]
  sk_ddG_kJ: 1.92 kJ
[2]; ref SKEMPI
  sk_class: Neutral (neutral (little effect) 4.184 kJ/mol < ΔΔG > −4.184 kJ/mol)
